Data taken from ChEMBL document CHEMBL1147001, “Synthesis and antibacterial activity of novel oxazolidinones bearing N-hydroxyacetamidine substituent” (2006).
In brackets after ≈: the same amount, converted by molar mass.

Assays:
Type in all cases: functional
Enterococcus faecalis [1] = test: Antibacterial activity against vancomycin-resistant Enterococcus faecalis DRCC 153
Haemophilus influenzae = test: Antibacterial activity against beta lactamase negative Haemophilus influenzae DRCC 433
Enterococcus faecalis [2] = test: Antibacterial activity against vancomycin-susceptible Enterococcus faecalis DRCC 034
Staphylococcus aureus [3] = test: Antibacterial activity against methicillin-resistant Staphylococcus aureus DRCC 019
Enterococcus faecalis [4] = test: Antibacterial activity against vancomycin-resistant Enterococcus faecalis DRCC 154
Staphylococcus aureus [5] = test: Antibacterial activity against methicillin-resistant Staphylococcus aureus DRCC 446
Staphylococcus aureus [6] = test: Antibacterial activity against methicillin-susceptible Staphylococcus aureus DRCC 035
Staphylococcus aureus [7] = test: Efficacy against po dosed mouse infected with Staphylococcus aureus ATCC 29213
Moraxella catarrhalis = test: Antibacterial activity against beta lactamase negative Moraxella catarrhalis DRCC 300

Row | Compound | MIC (Enterococcus faecalis [1]) [mg/L] | MIC (Haemophilus influenzae) [mg/L] | MIC (Enterococcus faecalis [2]) [mg/L] | MIC (Staphylococcus aureus [3]) [mg/L] | MIC (Enterococcus faecalis [4]) [mg/L] | MIC (Staphylococcus aureus [5]) [mg/L] | MIC (Staphylococcus aureus [6]) [mg/L] | ED50 (Staphylococcus aureus [7]) [mg/kg/day] | MIC (Moraxella catarrhalis) [mg/L]
1 | C/C(S)=N/C[C@H]1CN(c2ccc(N3CCN(CC(=N)NO)CC3)c(F)c2)C(=O)O1 | 1 (≈ 2.36 µM) | 4 (≈ 9.42 µM) | 1 (≈ 2.36 µM) | 1 (≈ 2.36 µM) | 1 (≈ 2.36 µM) | 1 (≈ 2.36 µM) | 2 (≈ 4.71 µM) | – | –
2 | N/C(CN1CCN(c2ccc(N3C[C@H](CNC(=O)C(F)F)OC3=O)cc2F)CC1)=N\O | 2 (≈ 4.5 µM) | 4 (≈ 9 µM) | 4 (≈ 9 µM) | 4 (≈ 9 µM) | 4 (≈ 9 µM) | 4 (≈ 9 µM) | 4 (≈ 9 µM) | 12.1 | 8 (≈ 18 µM)
3 | COC(=O)NC[C@H]1CN(c2cc(F)c(N3CCN(CC(=N)NO)CC3)c(F)c2)C(=O)O1 | 1 (≈ 2.26 µM) | 8 (≈ 18.1 µM) | 1 (≈ 2.26 µM) | 1 (≈ 2.26 µM) | 2 (≈ 4.52 µM) | 1 (≈ 2.26 µM) | 2 (≈ 4.52 µM) | 32.2 | 2 (≈ 4.52 µM)
4 | C/C(S)=N/C[C@H]1CN(c2cc(F)c(N3CCN(CC(=N)NO)CC3)c(F)c2)C(=O)O1 | 0.5 (≈ 1.13 µM) | 4 (≈ 9.04 µM) | 0.5 (≈ 1.13 µM) | 0.25 (≈ 0.565 µM) | 0.25 (≈ 0.565 µM) | 0.25 (≈ 0.565 µM) | 1 (≈ 2.26 µM) | 22.1 | 0.5 (≈ 1.13 µM)
5 | CO/C(S)=N/C[C@H]1CN(c2ccc(N3CCN(CC(=N)NO)CC3)c(F)c2)C(=O)O1 | 0.5 (≈ 1.14 µM) | 8 (≈ 18.2 µM) | 0.5 (≈ 1.14 µM) | 0.5 (≈ 1.14 µM) | 0.5 (≈ 1.14 µM) | 0.5 (≈ 1.14 µM) | 1 (≈ 2.27 µM) | 21.2 | 8 (≈ 18.2 µM)
6 | N/C(CN1CCN(c2ccc(N3C[C@H](COc4ccon4)OC3=O)cc2F)CC1)=N\O | 8 (≈ 18.4 µM) | 256 (≈ 589 µM) | 16 (≈ 36.8 µM) | 4 (≈ 9.21 µM) | 16 (≈ 36.8 µM) | 4 (≈ 9.21 µM) | 16 (≈ 36.8 µM) | – | 8 (≈ 18.4 µM)
7 | N/C(CN1CCN(c2c(F)cc(N3C[C@H](CNC(=O)C(F)F)OC3=O)cc2F)CC1)=N\O | 0.5 (≈ 1.08 µM) | 4 (≈ 8.65 µM) | 1 (≈ 2.16 µM) | 1 (≈ 2.16 µM) | 1 (≈ 2.16 µM) | 1 (≈ 2.16 µM) | 2 (≈ 4.33 µM) | 18.3 | 2 (≈ 4.33 µM)
8 | CC(=O)NC[C@H]1CN(c2ccc(N3CCN(CC(=N)NO)CC3)c(F)c2)C(=O)O1 | 2 (≈ 4.9 µM) | 8 (≈ 19.6 µM) | 8 (≈ 19.6 µM) | 4 (≈ 9.79 µM) | 8 (≈ 19.6 µM) | 4 (≈ 9.79 µM) | 16 (≈ 39.2 µM) | – | 8 (≈ 19.6 µM)
9 | CO/C(S)=N/C[C@H]1CN(c2cc(F)c(N3CCN(CC(=N)NO)CC3)c(F)c2)C(=O)O1 | 0.25 (≈ 0.545 µM) | 4 (≈ 8.72 µM) | 0.25 (≈ 0.545 µM) | 0.25 (≈ 0.545 µM) | 0.25 (≈ 0.545 µM) | 0.25 (≈ 0.545 µM) | 0.5 (≈ 1.09 µM) | 32.2 | 0.5 (≈ 1.09 µM)
10 | N/C(CN1CCN(c2c(F)cc(N3C[C@H](COc4ccon4)OC3=O)cc2F)CC1)=N\O | 2 (≈ 4.42 µM) | > 32 | 4 (≈ 8.84 µM) | 2 (≈ 4.42 µM) | 4 (≈ 8.84 µM) | 2 (≈ 4.42 µM) | 4 (≈ 8.84 µM) | – | 16 (≈ 35.4 µM)
11 | COC(=O)NC[C@H]1CN(c2ccc(N3CCN(CC(=N)NO)CC3)c(F)c2)C(=O)O1 | 4 (≈ 9.42 µM) | 32 (≈ 75.4 µM) | 4 (≈ 9.42 µM) | 16 (≈ 37.7 µM) | 16 (≈ 37.7 µM) | 16 (≈ 37.7 µM) | 8 (≈ 18.8 µM) | – | > 16
12 | CC(=O)NC[C@H]1CN(c2cc(F)c(N3CCN(CC(=N)NO)CC3)c(F)c2)C(=O)O1 | 1 (≈ 2.35 µM) | 4 (≈ 9.38 µM) | 1 (≈ 2.35 µM) | 1 (≈ 2.35 µM) | 1 (≈ 2.35 µM) | 1 (≈ 2.35 µM) | 2 (≈ 4.69 µM) | – | 4 (≈ 9.38 µM)
13 | CC(=O)NC[C@H]1CN(c2ccc(N3CCOCC3)c(F)c2)C(=O)O1 [LINEZOLID] | – | 8 (≈ 23.7 µM) | – | 1 (≈ 2.96 µM) | – | – | – | 5.3 | 8 (≈ 23.7 µM)
